Assays:
[1] = system: Epidermal growth factor receptor (Homo sapiens), P00533 [L858R,T790M,C797S]; experiment: Inhibition of EGFR L858R/T790M/C797S mutant (unknown origin) at 1 uM relative to control
[2] = system: Epidermal growth factor receptor (Homo sapiens), P00533 [L858R,T790M,C797S]; experiment: Inhibition of EGFR L858R/T790M/C797S mutant (unknown origin) at 0.5 uM relative to control
[3] = target: Epidermal growth factor receptor (Homo sapiens, UniProt P00533, C797S/L858R/T790M); experiment: Inhibition of EGFR L858R/T790M/C797S mutant (unknown origin)
A-431 = experiment: Antiproliferative activity against human A-431 cells assessed as inhibition of cell growth incubated for 72 hrs by CCK-8 assay; format: functional, cell-based; settings: A-431, 72 h
A549 = experiment: Antiproliferative activity against human A549 cells assessed as inhibition of cell growth incubated for 72 hrs by CCK-8 assay; format: functional, cell-based; settings: A549, 72 h
PC-9 [4] = experiment: Antiproliferative activity against human PC-9 cells expressing EGFR L858R/T790M/C797S mutant assessed as inhibition of cell growth incubated for 72 hrs by CCK-8 assay; format: functional, cell-based; settings: PC-9, 72 h
PC-9 [5] = experiment: Induction of apoptosis in human PC-9 cells expressing EGFR L858R/T790M/C797S mutant assessed as dead cells at 0.25 uM incubated for 24 hrs by annexin-V/propidium iodide staining-based flow cytometry analysis (reference value: 0.43 %); format: functional
PC-9 [6] = experiment: Induction of apoptosis in human PC-9 cells expressing EGFR L858R/T790M/C797S mutant assessed as early apoptotic cells at 0.25 uM incubated for 24 hrs by annexin-V/propidium iodide staining-based flow cytometry analysis (reference value: 0.3 %); format: functional
PC-9 [7] = experiment: Induction of apoptosis in human PC-9 cells expressing EGFR L858R/T790M/C797S mutant assessed as viable cells at 0.25 uM incubated for 24 hrs by annexin-V/propidium iodide staining-based flow cytometry analysis (reference value: 99.1 %); format: functional
PC-9 [8] = experiment: Induction of apoptosis in human PC-9 cells expressing EGFR L858R/T790M/C797S mutant assessed as late apoptotic cells at 0.25 uM incubated for 24 hrs by annexin-V/propidium iodide staining-based flow cytometry analysis (reference value: 0.14 %); format: functional

Sequence of Epidermal growth factor receptor (Homo sapiens), P00533 [L858R,T790M,C797S] (P00533 whole entry T790M/C797S/L858R): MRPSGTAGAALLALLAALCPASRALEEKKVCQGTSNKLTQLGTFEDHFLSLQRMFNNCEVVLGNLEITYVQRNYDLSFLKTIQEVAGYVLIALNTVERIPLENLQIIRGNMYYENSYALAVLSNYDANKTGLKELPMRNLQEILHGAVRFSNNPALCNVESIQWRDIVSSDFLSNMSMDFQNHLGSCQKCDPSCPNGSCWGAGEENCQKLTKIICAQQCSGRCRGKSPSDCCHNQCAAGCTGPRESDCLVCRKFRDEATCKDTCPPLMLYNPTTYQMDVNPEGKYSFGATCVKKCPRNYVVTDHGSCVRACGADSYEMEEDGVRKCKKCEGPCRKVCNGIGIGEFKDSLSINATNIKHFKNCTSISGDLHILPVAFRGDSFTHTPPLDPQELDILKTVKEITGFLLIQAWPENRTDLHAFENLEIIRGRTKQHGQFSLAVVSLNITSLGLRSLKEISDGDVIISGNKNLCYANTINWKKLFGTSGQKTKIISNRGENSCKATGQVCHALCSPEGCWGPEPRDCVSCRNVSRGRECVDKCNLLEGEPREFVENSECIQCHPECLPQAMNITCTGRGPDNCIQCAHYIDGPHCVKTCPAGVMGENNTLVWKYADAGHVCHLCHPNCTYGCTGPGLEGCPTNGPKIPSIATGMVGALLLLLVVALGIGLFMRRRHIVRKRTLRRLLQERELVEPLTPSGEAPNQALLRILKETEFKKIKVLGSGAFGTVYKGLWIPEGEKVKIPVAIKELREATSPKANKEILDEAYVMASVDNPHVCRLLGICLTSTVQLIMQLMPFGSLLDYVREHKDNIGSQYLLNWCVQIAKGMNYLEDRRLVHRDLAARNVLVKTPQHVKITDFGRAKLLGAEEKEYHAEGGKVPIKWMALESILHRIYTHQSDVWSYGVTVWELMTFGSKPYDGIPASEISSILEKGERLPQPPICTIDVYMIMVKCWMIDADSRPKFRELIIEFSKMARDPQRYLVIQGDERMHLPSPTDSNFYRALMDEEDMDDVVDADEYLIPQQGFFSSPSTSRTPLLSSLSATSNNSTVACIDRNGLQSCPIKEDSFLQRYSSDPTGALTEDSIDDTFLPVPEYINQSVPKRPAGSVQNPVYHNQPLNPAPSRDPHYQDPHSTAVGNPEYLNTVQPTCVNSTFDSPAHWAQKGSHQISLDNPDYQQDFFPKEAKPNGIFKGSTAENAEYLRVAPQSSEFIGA
Sequence of Epidermal growth factor receptor (P00533 25-1210 T790M/C797S/L858R limits assumed): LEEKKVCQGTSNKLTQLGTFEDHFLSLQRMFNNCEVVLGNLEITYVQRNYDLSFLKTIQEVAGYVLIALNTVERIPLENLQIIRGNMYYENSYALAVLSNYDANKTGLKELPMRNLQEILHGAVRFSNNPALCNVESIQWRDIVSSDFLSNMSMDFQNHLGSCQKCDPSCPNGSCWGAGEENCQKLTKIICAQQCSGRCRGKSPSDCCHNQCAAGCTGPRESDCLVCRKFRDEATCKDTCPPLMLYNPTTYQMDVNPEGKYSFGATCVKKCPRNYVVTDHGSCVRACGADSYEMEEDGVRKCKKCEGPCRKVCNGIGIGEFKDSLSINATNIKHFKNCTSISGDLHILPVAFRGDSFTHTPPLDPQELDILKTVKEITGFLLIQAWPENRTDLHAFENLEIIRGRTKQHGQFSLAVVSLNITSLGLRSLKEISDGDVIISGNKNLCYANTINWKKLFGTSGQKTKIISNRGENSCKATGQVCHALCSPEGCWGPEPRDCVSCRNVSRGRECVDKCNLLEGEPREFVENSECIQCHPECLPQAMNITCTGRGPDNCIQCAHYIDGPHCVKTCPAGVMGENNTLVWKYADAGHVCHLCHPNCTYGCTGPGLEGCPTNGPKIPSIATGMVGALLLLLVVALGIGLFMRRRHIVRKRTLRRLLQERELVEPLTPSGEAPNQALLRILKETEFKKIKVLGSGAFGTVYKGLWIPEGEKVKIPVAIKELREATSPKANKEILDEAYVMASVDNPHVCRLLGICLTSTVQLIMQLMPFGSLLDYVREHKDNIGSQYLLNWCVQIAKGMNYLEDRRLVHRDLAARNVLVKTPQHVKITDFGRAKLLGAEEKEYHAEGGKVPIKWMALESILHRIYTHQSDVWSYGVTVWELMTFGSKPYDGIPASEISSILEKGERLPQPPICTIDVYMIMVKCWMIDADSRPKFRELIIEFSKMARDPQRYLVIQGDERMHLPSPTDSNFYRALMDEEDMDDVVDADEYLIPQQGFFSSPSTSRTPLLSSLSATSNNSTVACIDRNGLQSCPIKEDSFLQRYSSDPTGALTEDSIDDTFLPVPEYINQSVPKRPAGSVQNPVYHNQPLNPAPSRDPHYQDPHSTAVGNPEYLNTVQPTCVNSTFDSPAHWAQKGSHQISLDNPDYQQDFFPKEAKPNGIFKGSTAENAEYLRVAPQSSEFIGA

Row | Compound | inhibition [1] | inhibition [2] | further results
1 | C=CC(=O)Nc1cc(Nc2ncc3cc(C(=O)Nc4ccnc(C)c4)n(C4CCCC4)c3n2)c(OC)cc1N(C)CCN(C)C | 8.3% | -10% | 
2 | C=CC(=O)Nc1cc(Nc2ncc3cc(CNc4cccc(OC)c4)n(C4CCCC4)c3n2)c(OC)cc1N(C)CCN(C)C | 56% | 41% | 
3 | C=CC(=O)Nc1cc(Nc2ncc3cc(C(=O)Nc4ccnc(OC)c4)n(C4CCCC4)c3n2)c(OC)cc1N(C)CCN(C)C | 4.1% | -2.6% | 
4 | C=CC(=O)Nc1cc(Nc2ncc3cc(C(=O)Nc4cccc(OC)c4)n(C4CCCC4)c3n2)c(OC)cc1N(C)CCN(C)C | 17% | 11% | 
5 | C=CC(=O)Nc1cc(Nc2ncc3cc(CNc4cccc(C)c4)n(C4CCCC4)c3n2)c(OC)cc1N(C)CCN(C)C | 61% | 48% | 
6 | C=CC(=O)Nc1cc(Nc2ncc3cc(C(=O)Nc4cccc(N(C)C)c4)n(C4CCCC4)c3n2)c(OC)cc1N(C)CCN(C)C | 16% | 12% | 
7 | C=CC(=O)Nc1cc(Nc2ncc3cc(C(=O)Nc4cccc(OC(F)(F)F)c4)n(C4CCCC4)c3n2)c(OC)cc1N(C)CCN(C)C | 0.6% | -1.9% | 
8 | C=CC(=O)Nc1cc(Nc2ncc3cc(C(=O)Nc4cccc(OC)c4)n(C4CC4)c3n2)c(OC)cc1N(C)CCN(C)C | 7.8% | 7% | 
9 | C=CC(=O)Nc1cc(Nc2ncc3cc(CNc4c(C)cccc4C)n(C4CCCC4)c3n2)c(OC)cc1N(C)CCN(C)C | 40% | 23% | 
10 | C=CC(=O)Nc1cc(Nc2ncc3cc(C(=O)Nc4ccc(OC)c(OC)c4)n(C4CCCC4)c3n2)c(OC)cc1N(C)CCN(C)C | 8.7% | 7.3% | 
11 | C=CC(=O)Nc1cc(Nc2ncc3cc(C(=O)Nc4ccc(OC)cc4)[nH]c3n2)c(OC)cc1N(C)CCN(C)C | 9.5% | 2.8% | 
12 | C=CC(=O)Nc1cc(Nc2ncc3cc(C(=O)Nc4cccc(OC)c4)n(-c4ccccc4)c3n2)c(OC)cc1N(C)CCN(C)C | 6% | 4.1% | 
13 | C=CC(=O)Nc1cc(Nc2ncc3cc(C(=O)Nc4ccc5c(c4)OCO5)n(C4CCCC4)c3n2)c(OC)cc1N(C)CCN(C)C | 13% | 0.5% | 
14 | C=CC(=O)Nc1cc(Nc2ncc3cc(C(=O)Nc4ccc(F)c(Cl)c4)n(C4CCCC4)c3n2)c(OC)cc1N(C)CCN(C)C | 10% | 8.1% | 
15 | C=CC(=O)Nc1cc(Nc2ncc3cc(C(=O)Nc4cccc(C(F)(F)F)c4)n(C4CCCC4)c3n2)c(OC)cc1N(C)CCN(C)C | 10% | 4.7% | 
16 | C=CC(=O)Nc1cc(Nc2ncc3cc(C(=O)Nc4ccccc4OC)n(C4CCCC4)c3n2)c(OC)cc1N(C)CCN(C)C | 18% | 7.5% | 
17 | C=CC(=O)Nc1cc(Nc2nccc(-c3cn(C)c4ccccc34)n2)c(OC)cc1N(C)CCN(C)C [OSIMERTINIB] |  |  | IC50 (A-431): […]; Activity (PC-9 [5]): 1.1%; Activity (PC-9 [6]): 3.83%; Activity (PC-9 [7]): 90.3%; IC50 (A549): 0.784 µM; IC50 (PC-9 [4]): 3.25 µM; Activity (PC-9 [8]): 4.75%
18 | COc1cc(N2CCC(N(C)C)CC2)ccc1Nc1ncc2cc(CNc3ccccc3)n(C3CCCC3)c2n1 | 83% | 80% | IC50 [3]: 0.01 µM; IC50 (A-431): 3.08 µM; IC50 (A549): 1.63 µM; IC50 (PC-9 [4]): 0.261 µM
19 | C=CC(=O)Nc1cc(Nc2ncc3cc(C(=O)Nc4cccc(OC)c4)n(C(C)C)c3n2)c(OC)cc1N(C)CCN(C)C | 12% | 9.3% | 
20 | C=CC(=O)Nc1cc(Nc2ncc3cc(C(=O)Nc4cc(OC)c(OC)c(OC)c4)n(C4CCCC4)c3n2)c(OC)cc1N(C)CCN(C)C | 5.3% | 3.1% | 
21 | C=CC(=O)Nc1cc(Nc2ncc3cc(C(=O)Nc4cccc(OC)c4)n(C)c3n2)c(OC)cc1N(C)CCN(C)C | -1.3% | -5% | 
22 | CN(C)CCN(C)c1ccc(Nc2ncc3cc(CNc4ccccc4)n(C4CCCC4)c3n2)cc1 | 90% | 88% | IC50 [3]: 0.304 µM; IC50 (A-431): 1.12 µM; IC50 (A549): 0.426 µM; IC50 (PC-9 [4]): 0.248 µM
23 | C=CC(=O)Nc1cc(Nc2ncc3cc(C(=O)Nc4cccc(OC)c4)n(C4CCCCC4)c3n2)c(OC)cc1N(C)CCN(C)C | 4.9% | 1.1% | 
24 | C=CC(=O)Nc1cc(Nc2ncc3cc(C(=O)NC4CCCCC4)n(C4CCCC4)c3n2)c(OC)cc1N(C)CCN(C)C | 6.5% | 4.8% | 
25 | C=CC(=O)Nc1cc(Nc2ncc3cc(CNc4cc(C)cc(C)c4)n(C4CCCC4)c3n2)c(OC)cc1N(C)CCN(C)C | -8.4% | -1.4% | 

The next lines start with results.

Row | inhibition [1] | inhibition [2] | Compound | further results
26 | 3.2% | 1.4% | C=CC(=O)Nc1cc(Nc2ncc3cc(C(=O)Nc4cccc(OC)c4)n(C4CCCC4)c3n2)c(OC)cc1N1CCOCC1 | 
27 | 26% | 18% | C=CC(=O)Nc1cc(Nc2ncc3cc(C(=O)Nc4ccccc4)n(C4CCCC4)c3n2)c(OC)cc1N(C)CCN(C)C | 
28 | 21% | 18% | C=CC(=O)Nc1cc(Nc2ncc3cc(C(=O)Nc4ccccc4)n(C4CCCC4)c3n2)c(OC)cc1N1CCN(C(C)C)CC1 | 
29 | 37% | 21% | C=CC(=O)Nc1cc(Nc2ncc3cc(C(=O)Nc4ccccc4)n(C4CCCC4)c3n2)ccc1N1CCN(C)CC1 | 
30 | 23% | 13% | C=CC(=O)Nc1cc(Nc2ncc3cc(C(=O)NC4CCCc5ccccc54)n(C4CCCC4)c3n2)c(OC)cc1N(C)CCN(C)C (stereo not drawn) | 
31 | 14% | 6.7% | C=CC(=O)Nc1cc(Nc2ncc3cc(C(=O)Nc4cccc(C)c4)n(C4CCCC4)c3n2)c(OC)cc1N(C)CCN(C)C | 
32 | 82% | 78% | COc1cc(N2CCC(N3CCN(C)CC3)CC2)ccc1Nc1ncc2cc(CNc3ccccc3)n(C3CCCC3)c2n1 | IC50 [3]: 0.055 µM; IC50 (A-431): 3.15 µM; IC50 (A549): 2.98 µM; IC50 (PC-9 [4]): 0.206 µM
33 | 16% | 15% | C=CC(=O)Nc1cc(Nc2ncc3cc(C(=O)Nc4cccc(OC)c4)n(C4CCCC4)c3n2)c(OC)cc1N1CCC(N(C)C)CC1 | 
34 | 20% | 16% | C=CC(=O)Nc1cc(Nc2ncc3cc(C(=O)Nc4ccccc4)n(C4CCCC4)c3n2)c(OC)cc1N1CCC(N2CCN(C)CC2)CC1 | 
35 | 23% | 23% | C=CC(=O)Nc1cc(Nc2ncc3cc(C(=O)Nc4ccccc4)n(C4CCCC4)c3n2)c(OC)cc1N1CCN(C)CC1 | 
36 | 3% | 3.7% | C=CC(=O)Nc1cc(Nc2ncc3cc(C(=O)Nc4cccc(C#N)c4)n(C4CCCC4)c3n2)c(OC)cc1N(C)CCN(C)C | 
37 | 22% | 5.2% | C=CC(=O)Nc1cc(Nc2ncc3cc(C(=O)Nc4cccc(O)c4)n(C4CCCC4)c3n2)c(OC)cc1N(C)CCN(C)C | 
38 | -0.3% | -2.3% | C=CC(=O)Nc1cc(Nc2ncc3cc(C(=O)Nc4cccc(OC)c4)n(C4CCCC4)c3n2)c(OC)cc1N1CCN(CCOC)CC1 | 
